Assays:
DmORco = target: T1, DmORco (Drosophila melanogaster, UniProt Q9VNB5); test: Whole-cell patch clamp, HEK cells transiently expressing DmORco; type: cell-based; details: DmORco transiently transfected HEK cells
T1 construct: expressed in transfected cells; host or cells: Flp-In T-REx 293 (HEK), transient, pCI vector, GFP co-transfected as a separate marker
T1 sequence (Q9VNB5 1-486): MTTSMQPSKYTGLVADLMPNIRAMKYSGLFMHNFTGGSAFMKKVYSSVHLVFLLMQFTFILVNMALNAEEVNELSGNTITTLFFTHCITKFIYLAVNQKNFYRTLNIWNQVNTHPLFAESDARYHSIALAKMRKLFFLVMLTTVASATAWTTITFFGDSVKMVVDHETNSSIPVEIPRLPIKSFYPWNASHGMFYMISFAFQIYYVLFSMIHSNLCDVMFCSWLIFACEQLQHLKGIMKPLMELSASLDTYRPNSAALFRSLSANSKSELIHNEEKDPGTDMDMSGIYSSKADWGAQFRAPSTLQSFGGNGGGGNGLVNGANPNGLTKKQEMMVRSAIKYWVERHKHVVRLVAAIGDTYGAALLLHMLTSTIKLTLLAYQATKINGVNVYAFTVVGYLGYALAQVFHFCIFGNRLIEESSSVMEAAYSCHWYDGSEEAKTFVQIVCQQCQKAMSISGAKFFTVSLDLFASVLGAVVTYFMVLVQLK
Text: For transient transfections, ORs were cloned into pCl (Promega) and transfected into Flp-In™ T-REx™293 cell lines (Invitrogen) with Fu GENE6 (Roche). For the creation of stable cell lines, a cell culture expression vector capable of expressing Orco in conjunction with a conventional OR, pcDNA5/FRT/TO (Invitrogen) was modified to create two individual expression cassettes each under the control of a separate CMV/Tet02 promoter and a BGH poly-adenylation signal. Cells (as above) were transfected with the modified pcDNA5 plasmid along with POG44 (a Flp recombinase expression plasmid) to facilitate site-specific recombination. Stable cell lines were selected using Hygromycin B (Invitrogen). Cells were maintained in DMEM (Invitrogen) supplemented with 10% Tetracycline-free FBS (HyClone) and 15 ng/ml Blasticidin. […] Baseline readings were taken for 20 s before automated addition of compound previously diluted in DMSO and assay buffer. […]
Currents from OR-expressing HEK293 cells were amplified with an Axopatch 200b Amplifier (Axon Instruments) and digitized through a Digidata 1322A (Axon Instruments). Electrophysiological data was recorded and analyzed using pCLAMP 10 (Axon Instruments). […]

AgOrco+AgOR65 = target: T2, AgOrco+AgOR65 (Anopheles gambiae, UniProt Q7QCC7); test: Ca2+ imaging, HEK cells expressing AgOrco+AgOR65; type: cell-based; details: heteromeric OR channels AgOrco+AgOR65; read-out: EC50
T2 construct: expressed in transfected cells
T2 sequence (Q7QCC7 1-478): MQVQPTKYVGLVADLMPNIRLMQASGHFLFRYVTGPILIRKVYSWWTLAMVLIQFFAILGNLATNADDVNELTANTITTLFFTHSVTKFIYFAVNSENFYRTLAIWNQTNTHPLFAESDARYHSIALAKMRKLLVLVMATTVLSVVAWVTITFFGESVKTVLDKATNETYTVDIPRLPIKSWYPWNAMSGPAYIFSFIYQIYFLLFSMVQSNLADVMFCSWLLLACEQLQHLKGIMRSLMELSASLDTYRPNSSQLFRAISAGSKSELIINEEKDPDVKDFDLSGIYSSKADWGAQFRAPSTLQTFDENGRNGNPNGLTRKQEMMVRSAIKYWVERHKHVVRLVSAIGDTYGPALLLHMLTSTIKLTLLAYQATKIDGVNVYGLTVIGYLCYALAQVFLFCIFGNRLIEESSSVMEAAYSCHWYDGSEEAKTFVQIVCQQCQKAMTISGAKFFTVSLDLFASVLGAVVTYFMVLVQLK
Text: For transient transfections, ORs were cloned into pCl (Promega) and transfected into Flp-In™ T-REx™293 cell lines (Invitrogen) with Fu GENE6 (Roche). For the creation of stable cell lines, a cell culture expression vector capable of expressing Orco in conjunction with a conventional OR, pcDNA5/FRT/TO (Invitrogen) was modified to create two individual expression cassettes each under the control of a separate CMV/Tet02 promoter and a BGH poly-adenylation signal. Cells (as above) were transfected with the modified pcDNA5 plasmid along with POG44 (a Flp recombinase expression plasmid) to facilitate site-specific recombination. Stable cell lines were selected using Hygromycin B (Invitrogen). Cells were maintained in DMEM (Invitrogen) supplemented with 10% Tetracycline-free FBS (HyClone) and 15 ng/ml Blasticidin. For fluorometric Ca2+ measurements, stable lines expressing ORs of interest were seeded at 20,000 cells/well in black wall, poly-lysine coated 384-well cell culture plates (Greiner) and treated with […] tetracycline (Sigma) overnight to induce OR expression. Cells were dye-loaded with 1.8 uM Fluo-4 AM (Molecular Probes), 2.5 mM Probenecid (Molecular Probes) in assay buffer (20 mM HEPES, IX HBSS) for 45 minutes at 37° C. in 5% CO2 prior to each assay. Ca^2+ mobilization was assayed in an FDSS6000 (Hamamatsu). Baseline readings were taken for 20 s before automated addition of compound previously diluted in DMSO and assay buffer. Ratios were described as Maximum/Minimum response and each response was normalized to the maximum responder.
For VUAA0, a single methyl from the para position of the aniline ring (compound VUAA0, FIG. 44) in the VUAA1 structure was removed. […] In VUAA0.5, unsaturation was introduced at the para position of the aniline ring (VUAA0.5, FIG. 44). […] In VUAA2, the ethyl group of the aniline ring in VUAA1 was replaced with an isopropyl group (VUAA2, FIG. 44).

CCc1ccc(NC(=O)CSc2nnc(-c3cccnc3)n2CC)cc1 [VUAA1, 2-((4-ethyl-5-(pyridin-3-yl)-4H-1,2,4-triazol-3-yl)thio)-N-(4-ethylphenyl)acetamide] was tested, and the whole-cell current response (DmORco) was “robust inward currents” and the EC50 (AgOrco+AgOR65) was 37 µM.

Reference: patent US11484032B2, “Compositions for inhibition of insect sensing” (Vanderbilt University, priority 2011, dated 2022)
